The values below are quoted from earlier work in patent US10463673B2, “Nanoparticulate meloxicam formulations” (Recro Pharma, Inc., priority 2003, dated 2019).

Like-named read-outs stand apart in the source and are kept apart here.

The conditions of series [1]: oral; for Cmax, mean (% CV) / tmax, mean (% CV): 15 mg capsules.
Series [2] relates to COX-2.
The mark [3] stands for this setting: Single dose, hepatic insufficiency (Fasted).
Where [4] appears, read: Single dose, renal failure (Fasted).
Where [5] appears, read: Steady state, elderly females (Fed).
[6] abbreviates: Steady state, elderly males (Fed).

Consider `Cc1cnc(NC(=O)C2=C(O)c3ccccc3S(=O)(=O)N2C)s1` [Meloxicam, 4-hydroxy-2-methyl-N-(5-methyl-2-thiazolyl)-2-H-1,2-benzothiazine-3-carboxamide 1,1-dioxide], for which the “Cmax, mean (% CV)” value in series [1] (setting [3]) is on record as 0.84 (29) μg/mL; in series [1] (setting [4]), 0.59 (36) μg/mL; in series [1] (setting [5]) it was 3.2 (24) μg/mL; in series [1] (setting [6]), 2.3 (59) μg/mL. Moreover, the “tmax, mean (% CV)” value is 10 (87) h in series [1] (setting [3]), 4 (65) h in series [1] (setting [4]), 6 (27) h in series [1] (setting [5]) and 5 (12) h in series [1] (setting [6]). The “time of second meloxicam concentration peak post-dose” value in series [1] (fasted steady state conditions) is listed as “twelve to fourteen”. The solubility in methanol result (methanol) is recorded as “very slightly soluble”. Under “strong acids and bases, compared with water”, the “solubility in strong acids and bases” value was “higher solubility”. Under “water”, the solubility in water result is “practically insoluble”. The COX-2/COX-1 inhibition ratio in series [2] is recorded as 0.09.
